According to patent US8791132B2, “Compounds and methods for treatment of hypertension” (Medivation Technologies, Inc., priority 2011, dated 2014):
pKi: −log10 of the molar value. Values joined by “and” are separate entries in the source; they are usually repeats but may differ in a detail not shown here. Equal entries are not always repeated.

Key:
[1] = target: T1, rat adrenergic α1B receptor (Rattus norvegicus, UniProt P15823); assay: Radioligand binding, adrenergic α1B ([3H]Prazosin); conditions: [3H]Prazosin; for Percentage inhibition of ligand binding, Adrenergic α1B / Percentage inhibition of ligand binding, Adrenergic α1B (0.1 μM): 0.1 µM
T1 construct: rat adrenergic α1B receptor obtained from Wistar Rat liver; from tissue; host or cells: Wistar rat liver
T1 sequence (P15823 1-515): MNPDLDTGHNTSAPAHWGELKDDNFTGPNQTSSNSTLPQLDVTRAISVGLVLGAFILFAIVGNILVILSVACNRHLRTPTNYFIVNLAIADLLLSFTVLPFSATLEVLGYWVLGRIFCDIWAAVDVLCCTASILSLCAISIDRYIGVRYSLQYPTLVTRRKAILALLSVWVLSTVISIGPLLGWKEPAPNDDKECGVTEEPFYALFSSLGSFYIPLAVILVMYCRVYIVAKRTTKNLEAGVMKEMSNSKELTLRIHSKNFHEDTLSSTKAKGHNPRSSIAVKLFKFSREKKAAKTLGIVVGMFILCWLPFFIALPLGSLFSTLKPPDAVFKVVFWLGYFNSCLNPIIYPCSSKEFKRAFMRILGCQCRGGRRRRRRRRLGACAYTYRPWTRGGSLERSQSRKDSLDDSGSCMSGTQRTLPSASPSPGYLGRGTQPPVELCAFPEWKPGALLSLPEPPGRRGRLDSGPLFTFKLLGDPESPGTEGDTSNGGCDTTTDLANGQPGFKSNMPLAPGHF
In short: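 Incubation ran 60 min at 25 °C in Tris-HCl buffer (50 mM, pH 7.4, 0.5 mM EDTA) with Wistar rat liver α1B receptor. 10 μM phentolamine set non-specific binding.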

[2] = target: T2, human recombinant adrenergic α2A receptor (Homo sapiens, UniProt P08913); assay: Radioligand binding, adrenergic α2A ([3H]MK-912); conditions: for Percentage inhibition of ligand binding, Adrenergic α2A / inhibition at 0.1 µM / Percentage inhibition of ligand binding, Adrenergic α2A (0.1 μM): compound at 0.1 μM; for Percentage inhibition of ligand binding, Adrenergic α2A / inhibition at 0.1 µM: repeat assays, each datapoint shown; for Percentage inhibition of ligand binding, Adrenergic α2A / Percentage inhibition of ligand binding, Adrenergic α2A (0.1 μM): 0.1 µM; for inhibition at 0.1 µM: read-out: Percentage inhibition of ligand binding, Adrenergic α2A
T2 construct: expressed in transfected cells; host or cells: insect Sf9 cells
T2 sequence (P08913 1-465): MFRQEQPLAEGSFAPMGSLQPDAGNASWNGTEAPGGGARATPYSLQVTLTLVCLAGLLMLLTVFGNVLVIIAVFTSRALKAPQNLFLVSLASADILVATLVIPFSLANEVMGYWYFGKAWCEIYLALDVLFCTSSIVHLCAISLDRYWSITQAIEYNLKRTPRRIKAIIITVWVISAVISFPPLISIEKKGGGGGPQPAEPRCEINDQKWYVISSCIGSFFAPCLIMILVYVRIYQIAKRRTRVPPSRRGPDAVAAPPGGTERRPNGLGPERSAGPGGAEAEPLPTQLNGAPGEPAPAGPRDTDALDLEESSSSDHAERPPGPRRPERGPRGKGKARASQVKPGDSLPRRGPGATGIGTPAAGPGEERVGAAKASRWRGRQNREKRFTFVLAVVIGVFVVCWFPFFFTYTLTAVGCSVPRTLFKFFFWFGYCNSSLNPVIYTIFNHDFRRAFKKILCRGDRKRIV
In short: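 Receptor expressed in insect Sf9 cells, assayed in 50 mM Tris-HCl pH 7.4 with 12.5 mM MgCl2 and 2 mM EDTA. Compounds incubated with 1 nM [3H]MK-912 for 60 min at 25 °C; nonspecific binding defined with 10 μM WB-4101. Filter-bound radioactivity counted; values are percent inhibition of specific binding.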

[3] = target: T3, human recombinant adrenergic α2B receptor (Homo sapiens, UniProt P18089); assay: Radioligand binding, adrenergic α2B ([3H]Rauwolscine); conditions: for Percentage inhibition of ligand binding, Adrenergic α2B / inhibition at 0.03 µM / Percentage inhibition of ligand binding, Adrenergic α2B (0.03 μM): compound at 0.03 μM, [3H]Rauwolscine; for Percentage inhibition of ligand binding, Adrenergic α2B / inhibition at 0.03 µM: repeat assays, each datapoint shown; for inhibition at 0.03 µM: read-out: Percentage inhibition of ligand binding, Adrenergic α2B; for Percentage inhibition of ligand binding, Adrenergic α2B (0.03 μM): repeat datapoints each shown
T3 construct: expressed in transfected cells; host or cells: CHO-K1
T3 sequence (P18089 1-450): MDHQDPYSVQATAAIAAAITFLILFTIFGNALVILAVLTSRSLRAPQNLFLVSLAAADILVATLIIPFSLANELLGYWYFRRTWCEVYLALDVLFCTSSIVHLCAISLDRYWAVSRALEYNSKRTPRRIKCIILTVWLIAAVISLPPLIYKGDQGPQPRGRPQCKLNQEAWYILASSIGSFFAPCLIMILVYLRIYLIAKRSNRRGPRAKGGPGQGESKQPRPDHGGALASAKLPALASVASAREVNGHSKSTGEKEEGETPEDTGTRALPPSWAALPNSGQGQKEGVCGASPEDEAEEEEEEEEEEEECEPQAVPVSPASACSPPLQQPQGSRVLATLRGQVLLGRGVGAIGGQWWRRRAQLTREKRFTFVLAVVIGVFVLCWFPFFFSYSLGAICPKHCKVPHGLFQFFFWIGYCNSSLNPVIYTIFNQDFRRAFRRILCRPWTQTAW
In short: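 Assay used CHO-K1-expressed human α2B receptor in Tris-HCl pH 7.4 buffer with MgCl2, EDTA and BSA; 60 min incubation at 25 °C.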

[4] = compound at 0.1 μM, repeat assays, each datapoint shown
[5] = compound at 0.1 μM, repeat datapoints each shown
[6] = [3H]MK-912, repeat datapoints each shown

Percentage inhibition of ligand binding, Adrenergic α1B [1, 4] [%] | Percentage inhibition of ligand binding, Adrenergic α2A ([2]; [3H]MK-912) [%] | Percentage inhibition of ligand binding, Adrenergic α2B ([3]; 0.03 µM) [%] | further results | SMILES
28 | 11 | 14 |  | Cc1cnc2c(c1)c1c(n2CC(O)c2ccncc2)CCN(C)C1 (single isomer, unassigned) [55a, 2-(3,6-dimethyl-5,6,7,8-tetrahydro-1,6,9-triaza-fluoren-9-yl)-1-pyridin-4-yl-ethanol]
57 | 7 | 67 |  | Cc1cnc2c(c1)c1c(n2CC(O)c2ccncc2)CCN(C)C1 (single isomer, unassigned) [55b, 2-(3,6-dimethyl-5,6,7,8-tetrahydro-1,6,9-triaza-fluoren-9-yl)-1-pyridin-4-yl-ethanol]
1 |  |  | inhibition at 0.1 µM ([2]; [3H]MK-912): 11%; inhibition at 0.03 µM [3]: 20% | Cc1ccc2c(c1)c1c(n2CC(C)(O)c2ccc[n+]([O-])c2)CCN(C)C1 (single isomer, unassigned) [56a]
6 | 17 | 28 |  | Cc1ccc2c(c1)c1c(n2CC(C)(O)c2ccc[n+]([O-])c2)CCN(C)C1 (single isomer, unassigned) [56b]
3 |  | 16 | inhibition at 0.1 µM ([2]; [3H]MK-912): 22% | CN1CCc2c(c3cccc(Cl)c3n2CC(C)(O)c2cccnc2)C1 (single isomer, unassigned) [57a, 1-(6-chloro-2-methyl-1,2,3,4-tetrahydro-pyrido[4,3-b]indol-5-yl)-2-pyridin-3-yl-propan-2-ol]
9 | 24 | 84 |  | CN1CCc2c(c3cccc(Cl)c3n2CC(C)(O)c2cccnc2)C1 (single isomer, unassigned) [57b, 1-(6-chloro-2-methyl-1,2,3,4-tetrahydro-pyrido[4,3-b]indol-5-yl)-2-pyridin-3-yl-propan-2-ol]
7 | 9 | 5 |  | Cc1cnc2c(c1)c1c(n2CC(O)c2ccncc2)CCNC1 (single isomer, unassigned) [58a, 2-(3-methyl-5,6,7,8-tetrahydro-1,6,9-triaza-fluoren-9-yl)-1-pyridin-4-yl-ethanol]
24 | 0 | 39 |  | Cc1cnc2c(c1)c1c(n2CC(O)c2ccncc2)CCNC1 (single isomer, unassigned) [58b, 2-(3-methyl-5,6,7,8-tetrahydro-1,6,9-triaza-fluoren-9-yl)-1-pyridin-4-yl-ethanol]
 |  | 15 | inhibition at 0.1 µM ([1]; compound at 0.1 μM, repeat assays, each datapoint shown, read-out: Percentage inhibition of ligand binding, Adrenergic α1B): 11%; inhibition at 0.1 µM ([2]; [3H]MK-912): 18% | CN1CCc2c(c3cc(C(F)(F)F)ccc3n2CC(O)c2cccnc2)C1 (single isomer, unassigned) [59a]
7 | 12 | 31 |  | CN1CCc2c(c3cc(C(F)(F)F)ccc3n2CC(O)c2cccnc2)C1 (single isomer, unassigned) [59b]
28 | 14 |  | inhibition at 0.03 µM [3]: 27% | Cc1cnc2c(c1)c1c(n2CCc2ccc(C)nc2)CCN2CCCC12 (single isomer, unassigned) [74b, 10-methyl-7-(2-(6-methylpyridin-3-yl)ethyl)-2,3,5,6,7,11c-hexahydro-1H-pyrido[3′,2′:4,5]pyrrolo[2,3-g]indolizine]
78 | 21 | 92 |  | Cc1ccc2c(c1)c1c(n2CC(O)c2ccncc2)CC2CCCN2C1 (single isomer, unassigned) [76a]
71 | 18 | 34 |  | Cc1ccc2c(c1)c1c(n2CC(O)c2ccncc2)CC2CCCN2C1 (single isomer, unassigned) [76b]
33 | 5 | 35 |  | Cc1ccc2c(c1)c1c(n2CC(O)c2ccncc2)CC2CCCN2C1 (single isomer, unassigned) [76c]
51 | 40 | 91 |  | Cc1ccc2c(c1)c1c(n2CC(O)c2ccncc2)CC2CCCN2C1 (single isomer, unassigned) [76d]
74 | 71 |  | inhibition at 0.03 µM [3]: 97% | Cc1ccc2c(c1)c1c(n2CC(C)(O)c2ccc(F)cc2)CCN(C)C1 (single isomer, unassigned) [90a]
81 | 82 |  | Percentage inhibition of ligand binding, Adrenergic α2B [3]: 97% | Cc1ccc2c(c1)c1c(n2CC(C)(O)c2ccc(F)cc2)CCN(C)C1 (single isomer, unassigned) [90b]
 |  |  | Percentage inhibition of ligand binding, Adrenergic α1B (0.1 μM) [1, 5]: 37%; inhibition at 0.03 µM ([1]; read-out: Percentage inhibition of ligand binding, Adrenergic α1B (0.03 μM), compound at 0.03 μM, repeat datapoints each shown): 13%; pKi [2]: 7.04; Percentage inhibition of ligand binding, Adrenergic α2A (0.1 μM) [2, 6]: 25% and 36%; inhibition at 0.03 µM ([2]; read-out: Percentage inhibition of ligand binding, Adrenergic α2A (0.03 μM), compound at 0.03 μM, [3H]MK-912, repeat datapoints each shown): 14%; Percentage inhibition of ligand binding, Adrenergic α2B (0.03 μM) ([3]; 0.03 µM): 63% and 102%; pKi ([3]; read-out: Ki α2B): 8.94 | Cc1ccc(C(C)(O)Cn2c3c(c4cc(Cl)ccc42)CN(C)CC3)cn1 (single isomer, unassigned) [93a]
 |  |  | Percentage inhibition of ligand binding, Adrenergic α1B (0.1 μM) [1, 5]: 1%; Percentage inhibition of ligand binding, Adrenergic α2A (0.1 μM) [2, 6]: −5%; Percentage inhibition of ligand binding, Adrenergic α2B (0.03 μM) ([3]; 0.03 µM): 26% | Cc1ccc(C(C)(O)Cn2c3c(c4cc(Cl)ccc42)CN(C)CC3)cn1 (single isomer, unassigned) [93b]
